The record followed here is patent US20260041098A1, “POLYMERIC BATCH TO PREPARE AN ANTIMICROBIAL MATERIAL AND AIR FILTER” (IMPORTADORA Y EXPORTADORA JCN LIMITADA, priority 2021, published 2026).

What all share (type): cell-based
Experiment [1] relates to S. aureus ATCC 6538. Put plainly: Copper oxychloride dilution test. As to conditions: 5,000 ppm. As for the experimental part:
(§1) Additionally, a dilution test was performed using a 250,000 ppm ([…]) stock solution of copper oxychloride. A gradient was prepared using aliquots from 2,500 ppm to 100,000 ppm. A 3×10^5 CFU/mL bacterial culture of S. aureus ATCC 6538 and a 1.25×10^6 CFU/mL culture of E. coli ATCC 25922 were added to each solution.

Experiment [2] has as its system E. coli ATCC 25922. Put plainly: Copper oxychloride dilution test. The procedure:
as §1

Experiment [3] deals with S. aureus ATCC 6538. Put plainly: Copper oxychloride agar diffusion test. Particulars: 4,250-125,000 ppm tested, 37° C., 24 hours. The procedure:
(§2) An agar diffusion test was conducted for E. coli ATCC 25922 and S. aureus ATCC 6538 cultures. Copper oxychloride was added at different concentrations (4,250 ppm, 8,500 ppm, 17,000 ppm, 32,000 ppm, 60,000 ppm, 125,000 ppm).
Background: Agar diffusion results depend on both activity and mobility in agar.

The test system of experiment [4] is E. coli ATCC 25922. Put plainly: Copper oxychloride agar diffusion test. As to conditions: 4,250-125,000 ppm tested, 37° C., 24 hours. As for the experimental part: as §2
Setting [5] is: repeated test, 5,000 ppm (bacterium not named).

For the compound `[Cl-].[Cu+2].[Cu+2].[OH-].[OH-].[OH-]` [copper oxychloride], the “% Efficiency” value was found to be 99.9% in the experiment with S. aureus ATCC 6538 [1] and 96.0% with E. coli ATCC 25922 [2] (2,500 ppm). Further, the values for the bacterial growth entry with S. aureus ATCC 6538 [1], with E. coli ATCC 25922 [2] (2,500 ppm) and with E. coli ATCC 25922 [2] (setting [5]) were “no growth”, “still grew” and “no bacterial growth was observed”, respectively. Besides, the “Final Count” value in the experiment with S. aureus ATCC 6538 [1] (initial count 3 × 10^5 CFU/mL) is 2 × 10^2 CFU/mL; in the experiment on E. coli ATCC 25922 [2] (2,500 ppm, initial count 1.25 × 10^6 CFU/mL), 5 × 10^4 CFU/mL. The bacteria eliminated with E. coli ATCC 25922 [2] (setting [5]) amounted to 99.9%. Further, the “concentration at which zones of growth inhibition were observed” value in the experiment on S. aureus ATCC 6538 [3] and in the experiment on E. coli ATCC 25922 [4] was 17,000 ppm each time.
